The values below come from US5188642A, “Glyphosate-resistant plants” (priority 1990, dated 1993).

The subject of assay [1] is sunflower tumors and callus. Nature of the assay: Sunflower tumor and callus tolerance to glyphosate. The class given is cell-based. From the text:
The following procedures are utilized to obtain transformed sunflower tissue and shoots. Tumors are incited on sterile sunflower seedlings. Sunflower seeds are surface sterilized with 40% Chlorox and sterile distilled water rinses. The seeds are germinated on an agar medium containing B5 salts, 0.5% sucrose and 0.8% agar. Seven-day old seedlings are inoculated with overnight cultures of Agrobacterium strains carrying pTiB6S3-SE by scoring the internode or stabbing the internode with a syringe and using another syringe to introduce the bacteria into the wound. Tumors form in 2-3 weeks. The tumors are removed from the seedlings and grown independently on MS medium without hormones. Transformed callus and shoots are also obtained following a different procedure. Seeds are surface sterilized and placed on the germination medium above. Germination is carried out in the light for 10 days. Hypocotyl segments, 2-3 mm are, excised and inoculated with Agrobacterium strains containing engineered constructs. The hypocotyls are co-cultured for 2 days on a medium containing MS salts and vitamins, 5 g/l KN03, 100 mg/l inositol, 40 mg/l adenine sulfate, 500 mg/l casamino acids, 1 mg/l NAA, 1 mg/l BA, 0.1 mg/l GA3, […] and 8 gm/l agar. After co-culture, the hypocotyls are placed on the same medium but containing 300 mg/l kanamycin and 500 mg/l carbenicillin.
A. tumefaciens containing binary vectors pMON546 and helper plasmid pTiB6S3-SE are used to produce tumors and callus and regenerated plants.

In assay [2] the test system is cotton tumor tissue. Nature of the assay: Cotton tumor tissue growth on medium containing glyphosate. It is filed as cell-based. The conditions noted are these: 0.5 mM glyphosate. How it is done: A plant transformation vector similar to pMON546 is prepared following the general procedure outlined in Example 1 except that the CTP/EPSPS coding sequence is obtained from cotton. Seeds of cotton (cultivator Delta Pine 50) are surface sterilized using sodium hypochlorite and germinated in vitro on a basal medium in the dark. After 2 weeks hypocotyls and cotyledons are cut into pieces and innoculated with a tumorous strain of A. tumefaciens containing the above described transformation vector and helper plasmid pGV3111. After 3 days coculture on MS basal medium, the explants are transferred to the same medium with 500 mg/l carbenicillin to kill the bacteria. After 2 to 4 weeks, tumor tissue is transferred to the same medium containing 0.5 mM glyphosate.
Control tissue was produced using tumorous A. tumefaciens cells containing the helper plasmid pGV3111 and pMON200.

Assay [3] relates to tobacco leaf fragments. As to the kind of experiment: Tobacco leaf callus assay on glyphosate. The settings on record: 0.5 mM glyphosate, 10 days. It is filed as cell-based, tobacco (Samsun variety). As for the experimental part:
Transformed tobacco plants (Samsun variety) were produced and grown by the method described in Example 4, substituting transformed tobacco leaf disks for transformed petunia leaf disks.
Tobacco plants were tested for glyphosate resistance using the method described for tomato plants in Example 5. Tobacco leaf fragments from plants containing vector alone (pMON200) or the pMON546 chimeric EPSPS gene were incubated on callus medium containing 0.5 mM glyphosate.

Assay [4] deals with EPSPS (Escherichia coli, UniProt P0A6D3). The class given is biochemical, E. coli. The text has this: (§1) This mutant bacterium was designated E. coli 11303 SM-1. The aroA gene encoding EPSPS from this mutant bacterium was isolated as follows.
Isolation of aroA gene encoding EPSPS from E. coli 11303 SM-1: The DNA from this bacterium was isolated (Marmur, J. (1961) J. Mol. Biol. 3:208-218). […] This fragment was cloned into the vector pKC7 (Rao, R. N. & Rogers, S. G. (1979), Gene, F. Jul. 7, 1982) and the resulting plasmid was used for trans-formation of E. coli. […] This clone was designated pMON9538. […] This clone was designated pMON9540. […] The E. coli mutant EPSPS gene was incorporated into plant transformation vector with and without a chloroplast transit peptide in the following manner.

For assay [5], the system named is E. coli 11303 SM-1. Nature of the assay: Growth of E. coli culture in glyphosate-containing growth medium. The conditions noted are these: mutant E. coli 11303 SM-1, glyphosate 10 mM or higher in growth medium. The class given is cell-based. How it is done: Cells of E. coli ATCC 11303 were transferred to medium A and incubated at 37° C.
as §1

Assay [6] relates to sunflower plants. As to the kind of experiment: Sunflower plants sprayed with glyphosate. The class given is in vivo.
Assay [7] deals with tomato leaf fragments. Nature of the assay: Tomato leaf callus assay on glyphosate. The class given is cell-based, tomato VF36. The settings on record: 0.5 mM glyphosate, 10 days. As for the experimental part:
Sterile seedlings of VF36 tomato are grown on water agar. Hypocotyls and cotyledons are excised and cultured for 2 days on MS medium containing B5 vitamins, 30 g/l sucrose and 1 mg/l benzyladenine and 0.1 mg/l indole acetic acid. The seedlings are then infected with the A. tumefaciens vector containing the chimeric EPSPS gene described in Example 2, by immersing for about 30 seconds in a culture of A. tumefaciens containing the chimeric EPSP synthase gene that had been diluted to 10^7 bacteria/ml. Explants are obtained by cutting sections from the seedlings. The explants are blotted dry and incubated as described previously in Example 2 except that the medium contains only 10% of standard concentration of MS salts. After 2 days of coculture, the explants are transferred to selective medium containing 100 ug/ml kanamycin. Transformed tomato plants grow from the explants. Leaves from these plants are tested for glyphosate resistance using a leaf callus assay described below. Tomato leaf fragments from plants containing vector alone (pMON200) or the pMON546 chimeric EPSPS gene are incubated on callus medium described above containing 0.5 mM glyphosate.

Assay [8] deals with tobacco leaf disks. As to the kind of experiment: Callus growth from tobacco leaf disks on glyphosate. The class given is cell-based, N. tabacum. The conditions noted are these: for callus tissue formation: 0.5 mM glyphosate. From the text: Leaf disks were excised from tobacco plants (N. tabacum) and treated as described above with A. tumefaciens cells containing pMON546 (or pMON505, for control cells) and helper plasmid pGV3111-SE.

In the case of `O=C(O)CNCP(=O)(O)O` [glyphosate, N-phosphonomethylglycine], in assay [1] (callus without the glyphosate resistance gene), the callus response is listed as “kill callus without the glyphosate resistance gene”. Also, the tumor response result in assay [1] (control tumors which do not contain the glyphosate resistance gene) is “bleach and kill control tumors”. Further, the callus tolerance in assay [1] (non-tumorous callus transformed with pMON546) is reported as “show tolerance to levels of glyphosate”. Also, the tumor tolerance entry in assay [1] (tumors produced with pMON546) is given as “exhibit tolerance to glyphosate”. Also, the tissue growth result is listed as “is inhibited” in assay [2] (pMON200 transformed tissue (control) and non-transformed tissue); “demonstrates glyphosate resistance by continuing growth” in assay [2] (tissue transformed with cotton CTP/EPSPS vector). Besides, the “callus growth from leaves” value in assay [3] (control tobacco leaves (pMON200 vector alone)) was “completely inhibited and showed no signs of callus growth”; in assay [7] (control leaves (pMON200 vector alone)), “completely inhibited and showed no signs of callus growth”; in assay [7] (leaves from plants transformed with chimeric EPSPS gene (pMON546)), “produced callus”. Further, in assay [3] (leaves from plants transformed with chimeric petunia EPSPS gene (pMON546)), the “glyphosate resistance of leaves” value was “confers glyphosate resistance to tobacco plants”. Also, in assay [4] (EPSPS of mutant cells (E. coli 11303 SM-1) compared with wild type E. coli), the “glyphosate sensitivity of EPSPS” value was “significantly different from that of wild type”. In assay [4] (EPSPS produced by hybrid K-12/11303 SM-1 aroA gene (pMON9540)), the “glyphosate tolerance of EPSPS” value is on record as “retained its glyphosate tolerance”. In addition, the growth of culture entry in assay [5] is “could grow rapidly”. For the same compound, the “plant tolerance to spray” value in assay [6] (transformed sunflower plants) is given as “demonstrate tolerance to glyphosate”. Besides, in assay [6] (wild type sunflower plants), the “plant response to spray” value was “kill wild type plants”. Also, the callus tissue formation in assay [8] (cells transformed with CaMV/EPSPS gene (pMON546)) was “created substantial amounts of callus tissue”; in assay [8] (control cells without the gene (pMON505)), “did not create any detectable callus tissue”. In addition, the “glyphosate resistance of transformed tobacco cells” value in assay [8] (pMON542, E. coli mutant EPSPS construct with CTP) was “resulted in glyphosate resistance”; in assay [8] (pMON8078, E. coli mutant EPSPS construct without CTP), “failed to confer glyphosate resistance”.
